Read-outs that look alike come from different tables or passages of the source.
Tests used:
IKKε = target: T1, IKKε (Homo sapiens, UniProt Q14164); assay: In-vitro IKKε kinase assay ([γ33]ATP filter-plate); format: biochemical
T1 construct: His-tag; made in house; host or cells: Sf9 insect cells
T1 sequence (Q14164 1-716): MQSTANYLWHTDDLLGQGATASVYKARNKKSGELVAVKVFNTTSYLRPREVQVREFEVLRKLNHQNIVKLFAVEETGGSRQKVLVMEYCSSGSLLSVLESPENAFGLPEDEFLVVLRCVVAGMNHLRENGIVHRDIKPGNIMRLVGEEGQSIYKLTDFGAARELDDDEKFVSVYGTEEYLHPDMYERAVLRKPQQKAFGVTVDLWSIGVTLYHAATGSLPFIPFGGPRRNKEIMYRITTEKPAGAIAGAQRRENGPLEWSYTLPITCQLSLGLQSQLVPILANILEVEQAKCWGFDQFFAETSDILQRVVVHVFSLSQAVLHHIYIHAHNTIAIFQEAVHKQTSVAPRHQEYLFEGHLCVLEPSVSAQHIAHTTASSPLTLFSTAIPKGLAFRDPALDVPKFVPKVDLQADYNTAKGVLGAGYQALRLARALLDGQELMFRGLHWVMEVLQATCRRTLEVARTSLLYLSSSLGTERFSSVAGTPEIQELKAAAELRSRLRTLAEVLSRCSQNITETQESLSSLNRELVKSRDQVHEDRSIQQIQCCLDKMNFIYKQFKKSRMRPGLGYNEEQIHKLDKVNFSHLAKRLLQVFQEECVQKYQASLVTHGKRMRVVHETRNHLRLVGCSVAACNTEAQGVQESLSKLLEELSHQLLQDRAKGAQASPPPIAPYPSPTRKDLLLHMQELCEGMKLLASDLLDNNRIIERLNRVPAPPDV
In short: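 His-tagged IKKε and TBK1 from Sf9 cells were assayed with myelin basic protein or casein and [γ33]ATP at 2×Km ATP (32 μM for IKKε, 60 μM for TBK1). Enzyme was 0.1 or 0.015 μg/ml for IKKε and 0.1 or 0.02 μg/ml for TBK1 (normal/sensitized). Reactions ran 30-45 min, were filter-captured, scintillation-counted, and normalized to DMSO after background subtraction.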

TBK1 = target: T2, TBK1 (Homo sapiens, UniProt Q9UHD2); assay: In-vitro TBK1 kinase assay ([γ33]ATP filter-plate); format: biochemical
T2 construct: His-tag; made in house; host or cells: Sf9 insect cells
T2 sequence (Q9UHD2 1-729): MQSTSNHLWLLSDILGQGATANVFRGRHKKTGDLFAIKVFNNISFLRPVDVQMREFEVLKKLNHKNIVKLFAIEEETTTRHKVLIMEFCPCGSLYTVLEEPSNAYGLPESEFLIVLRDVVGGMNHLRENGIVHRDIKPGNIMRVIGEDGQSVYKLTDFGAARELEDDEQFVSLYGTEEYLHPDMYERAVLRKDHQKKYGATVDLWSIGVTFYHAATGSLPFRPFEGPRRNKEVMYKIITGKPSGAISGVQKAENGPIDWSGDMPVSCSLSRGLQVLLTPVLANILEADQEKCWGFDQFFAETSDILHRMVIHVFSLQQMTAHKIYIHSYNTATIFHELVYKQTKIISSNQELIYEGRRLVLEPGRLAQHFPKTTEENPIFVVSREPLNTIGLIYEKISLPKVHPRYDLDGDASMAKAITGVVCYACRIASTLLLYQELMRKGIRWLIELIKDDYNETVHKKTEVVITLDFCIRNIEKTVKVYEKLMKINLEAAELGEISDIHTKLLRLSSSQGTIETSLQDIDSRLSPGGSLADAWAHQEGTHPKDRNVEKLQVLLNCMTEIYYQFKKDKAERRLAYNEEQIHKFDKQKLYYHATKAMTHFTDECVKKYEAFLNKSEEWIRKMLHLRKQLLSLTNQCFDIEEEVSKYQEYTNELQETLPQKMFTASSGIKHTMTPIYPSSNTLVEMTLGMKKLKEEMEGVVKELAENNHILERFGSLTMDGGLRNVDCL
Procedure: IKKε enzyme was produced as a His-tag fusion in Sf9 cells and used at a final concentration of […]. TBK1 enzyme was produced as a His-tag fusion in Sf9 cells and used at a final concentration of 0.1 μg/ml. Kinase reactions were carried out in reaction buffer using myelin basic protein (Millipore, Ballerica, Mass.) or casein (Sigma, St. Louis, Mo.) as substrate at an ATP concentration equal to twice the Km,ATP value for each enzyme, corresponding to 32 μM ATP for IKKε and 60 μM ATP for TBK1, in the presence of 0.3 μCi [γ^33]ATP (PerkinElmer, Waltham, Mass.). Final enzyme concentrations were 0.1 or 0.015 μg/ml (IKKε) and 0.1 or 0.02 μg/ml (TBK1), representing “normal” and “sensitized” assay conditions respectively. Test compounds (or DMSO solvent as a control) were added prior to initiation of the reactions. Reactions were terminated after 30-45 minutes by adding 3% phosphoric acid. Terminated reactions were transferred to P-81 cellulose phosphate filterplates (Whatman, Inc., Piscataway, N.J.) and washed with 1% phosphoric acid on a vacuum apparatus. After air drying, scintillant (PerkinElmer, Waltham, Mass.) was added and the plates were read on a PerkinElmer TopCount NXT instrument. Counts were normalized to DMSO controls after background subtraction.

[1] = text bins, read-out: IC50 for inhibition of the kinase activity of IKKε
[2] = text bins, read-out: IC50 for inhibition of the kinase activity of TBK1

N#Cc1cc(-c2ccnc(Nc3ccc(N4CCOCC4)cc3)n2)ccc1NC(=O)CN [compound 568, N-[2-Cyano-4-(2-{[4-(morpholin-4-yl)phenyl]amino}pyrimidin-4-yl)phenyl] glycinamide]
IC50 (IKKε; [1]): 5 to 50 nM | IC50 (TBK1; [2]): 10 to 100 nM

CC(C)(O)COc1ccc(-c2ccnc(Nc3ccc(N4CCOCC4)cc3)n2)cc1C#N [Example 231, 2-(2-Hydroxy-2-methylpropoxy)-5-(2-{[4-(morpholin-4-yl)phenyl]amino}pyrimidin-4-yl)benzonitrile]
IC50 (IKKε; [1]): < 5 nM | IC50 (TBK1; [2]): 10 to 100 nM

COc1ccc(-c2ccnc(Nc3ccc(NC(C)=O)cc3)n2)cc1C#N [compound 361, N-(4-{[4-(3-Cyano-4-methoxyphenyl)pyrimidin-2-yl]amino}phenyl) acetamide]
IC50 (IKKε; [1]): 5 to 50 nM | IC50 (TBK1; [2]): 10 to 100 nM

COc1cc(NC(=O)NCCCO)cc(Nc2nccc(-c3ccc(OC)c(C#N)c3)n2)c1 [compound 315, 1-(3-{[4-(3-Cyano-4-methoxyphenyl)pyrimidin-2-yl]amino}-5-methoxyphenyl)-3-(3-hydroxypropyl)urea]
IC50 (IKKε; [1]): 5 to 50 nM | IC50 (TBK1; [2]): < 10 nM

CN(C)C(=O)CCNc1ccc(Nc2nccc(-c3ccc(OC4CCOCC4)c(C#N)c3)n2)cc1 [Example 209, N~3~-[4-({4-[3-cyano-4-(tetrahydro-2H-pyran-4-yloxy)phenyl]pyrimidin-2-yl}amino)phenyl]-N,N-dimethyl-beta-alaninamide]
IC50 (IKKε; [1]): 5 to 50 nM | IC50 (TBK1; [2]): < 10 nM

N#Cc1cc(-c2ccnc(Nc3ccc(N4CCOCC4)cc3)n2)ccc1NC(=O)C1CC1 [Example 91, N-[2-cyano-4-(2-{[4-(morpholin-4-yl)phenyl]amino}pyrimidin-4-yl)phenyl] cyclopropane-carboxamide]
IC50 (IKKε; [1]): < 5 nM | IC50 (TBK1; [2]): < 10 nM

COc1ccc(-c2ccnc(Nc3cccc(S(N)(=O)=O)c3)n2)cc1C#N [compound 346, 3-{[4-(3-Cyano-4-methoxyphenyl)pyrimidin-2-yl]amino} benzenesulfonamide]
IC50 (IKKε; [1]): 5 to 50 nM | IC50 (TBK1; [2]): 10 to 100 nM

Cc1ccc(Nc2nccc(-c3ccc(OC4CCOCC4)c(C#N)c3)n2)cc1N1CCOCC1 [compound 590, 5-(2-{[4-Methyl-3-(morpholin-4-yl)phenyl]amino}pyrimidin-4-yl)-2-(tetrahydro-2H-pyran-4-yloxy)benzonitrile]
IC50 (IKKε; Table 3, read-out: IKKε IC50): 0.3 nM | IC50 (IKKε; [1]): < 5 nM | IC50 (TBK1; Table 3, read-out: TBK1 IC50): 1.2 nM | IC50 (TBK1; [2]): < 10 nM

COc1ccc(Nc2nccc(-c3cccc(C#N)c3)n2)cc1Cl [compound 318, 3-{2-[(3-Chloro-4-methoxyphenyl)amino]pyrimidin-4-yl}benzonitrile]
IC50 (IKKε; [1]): 5 to 50 nM | IC50 (TBK1; [2]): 10 to 100 nM

COc1ccc(-c2ccnc(Nc3cccc(NC(C)=O)c3)n2)cc1C#N [Example 70, N-(3-{[4-(3-Cyano-4-methoxyphenyl)pyrimidin-2-yl]amino}phenyl) acetamide]
IC50 (IKKε; [1]): 5 to 50 nM | IC50 (TBK1; [2]): 10 to 100 nM

COc1cc(C#N)cc(-c2ccnc(Nc3ccc(N4CCOCC4)cc3)n2)c1 [Example 241, 3-Methoxy-5-(2-{[4-(morpholin-4-yl)phenyl]amino}pyrimidin-4-yl)benzonitrile]
IC50 (IKKε; [1]): 5 to 50 nM | IC50 (TBK1; [2]): 10 to 100 nM

COc1cc(Nc2nccc(-c3ccc(OC4CCOCC4)c(C#N)c3)n2)ccc1S(=O)(=O)N1CCCC1 [compound 394, 5-(2-{[3-methoxy-4-(pyrrolidin-1-ylsulfonyl)phenyl]amino}pyrimidin-4-yl)-2-(tetrahydro-2H-pyran-4-yloxy)benzonitrile]
IC50 (IKKε; [1]): < 5 nM | IC50 (TBK1; [2]): < 10 nM

CC(C)(COc1ccc(-c2ccnc(Nc3ccc(N4CCOCC4)cc3)n2)cc1C#N)C(=O)O [compound 460, 3-[2-cyano-4-(2-{[4-(morpholin-4-yl)phenyl]amino}pyrimidin-4-yl)phenoxy]-2,2-dimethylpropanoic acid]
IC50 (IKKε; [1]): 5 to 50 nM | IC50 (TBK1; [2]): 10 to 100 nM

N#Cc1cc(-c2ccnc(Nc3ccc(CNC(=O)c4cnc(N)s4)cc3)n2)ccc1OC1CCOCC1 [compound 490, 2-amino-N-[4-({4-[3-cyano-4-(tetrahydro-2H-pyran-4-yloxy)phenyl]pyrimidin-2-yl}amino)benzyl]-1,3-thiazole-5-carboxamide]
IC50 (IKKε; Table 3, read-out: IKKε IC50): 1.4 nM | IC50 (IKKε; [1]): < 5 nM | IC50 (TBK1; Table 3, read-out: TBK1 IC50): 0.3 nM | IC50 (TBK1; [2]): < 10 nM

COc1cc(Nc2nccc(-c3ccc(OC4CCNCC4)c(C#N)c3)n2)ccc1N1CCOCC1 [Example 186, 5-(2-{[3-methoxy-4-(morpholin-4-yl)phenyl]amino}pyrimidin-4-yl)-2-(piperidin-4-yloxy)benzonitrile]
IC50 (IKKε; [1]): 5 to 50 nM | IC50 (TBK1; [2]): 10 to 100 nM

COC(=O)c1ccc(Nc2nccc(-c3ccc(OC4CCN(C(=O)[C@H](C)O)CC4)c(C#N)c3)n2)cc1 [compound 342, methyl 4-({4-[3-cyano-4-({1-[(2S)-2-hydroxypropanoyl]piperidin-4-yl}oxy)phenyl]pyrimidin-2-yl}amino)benzoate]
IC50 (IKKε; [1]): 5 to 50 nM | IC50 (TBK1; [2]): < 10 nM

COc1ccc(-c2ccnc(Nc3ccc(N(C)CC(=O)N(C)C)c(OC)c3)n2)cc1C#N [Example 68, N~2~-(4-{[4-(3-Cyano-4-methoxyphenyl)pyrimidin-2-yl]amino}-2-methoxyphenyl)-N,N,N~2~- trimethylglycinamide]
IC50 (IKKε; [1]): < 5 nM | IC50 (TBK1; [2]): < 10 nM

N#Cc1cc(-c2ccnc(Nc3ccc(N4CCOCC4)cc3)n2)ccc1OCC1CCN(C(=O)CO)C1 (stereo not shown) [compound 461, 2-{[1-(hydroxyacetyl)pyrrolidin-3-yl]methoxy}-5-(2-{[4-(morpholin-4-yl)phenyl]amino}pyrimidin-4-yl)benzonitrile]
IC50 (IKKε; [1]): 5 to 50 nM | IC50 (TBK1; [2]): < 10 nM

CC(C)C(=O)Nc1ccc(-c2ccnc(Nc3ccc(CCN4CCOCC4)cc3)n2)cc1C#N [compound 463, N-{2-cyano-4-[2-({4-[2-(morpholin-4-yl)ethyl]phenyl}amino)pyrimidin-4-yl]phenyl}-2-methylpropanamide]
IC50 (IKKε; [1]): 5 to 50 nM | IC50 (TBK1; [2]): 10 to 100 nM

N#Cc1cc(-c2ccnc(Nc3ccc(CS(=O)(=O)NCCO)cc3)n2)ccc1OCC1CC1 [compound 637, 1-[4-({4-[3-Cyano-4-(cyclopropylmethoxy)phenyl]pyrimidin-2-yl}amino)phenyl]-N-(2-hydroxyethyl) methanesulfonamide]
IC50 (IKKε; [1]): < 5 nM | IC50 (TBK1; [2]): < 10 nM

N#Cc1cc(-c2ccnc(Nc3ccc(N4CCOCC4)cc3)n2)ccc1OCc1cccnc1 [Example 168, 5-(2-{[4-(Morpholin-4-yl)phenyl]amino}pyrimidin-4-yl)-2-(pyridin-3-ylmethoxy) benzonitrile]
IC50 (IKKε; [1]): 5 to 50 nM | IC50 (TBK1; [2]): < 10 nM
